Tests used:
LNCaP cells = assay: LNCaP growth assay (cell count); format: cell-based, human; settings: 5 μM
Description: LNCaP cells express an endogenous mutant AR that is found in prostate cancer patients. This clinically relevant cell model was used to study JC9's effect in suppressing prostate cancer cell growth. Cells were plated at a density of 6.3×10^4 cells/well in 6-well tissue culture dishes. Two days later, the complete medium was aspired and 10% charcoal/dextran-treated (hormone depleted) serum-containing medium was added. Test compounds, JC9 and hydroxyflutamide (HF) were then added to the medium at a final concentration of 5 μM with or without 1 nM of DHT. For vehicle control, the same amount of DMSO was added. For the subsequent 5 days, the medium was aspired once per day, and fresh medium containing test compounds and/or DHT was added. At designated times, a portion of cells was harvested by trypsinization, and cell count was performed using a hemacytometer.

[1] = biological target: T1, wild type androgen receptor (Homo sapiens, UniProt P10275); assay: Androgen receptor transactivation assay in CV-1 cells (MMTV-luciferase reporter); format: cell-based; settings: CV-1 cells transfected with wild type AR, DHT 1 nM, JC9 0 uM to 7.5 uM
T1 construct: expressed in transfected cells; host or cells: CV-1 (green monkey kidney cells lacking an androgen receptor)
T1 sequence (P10275 1-920): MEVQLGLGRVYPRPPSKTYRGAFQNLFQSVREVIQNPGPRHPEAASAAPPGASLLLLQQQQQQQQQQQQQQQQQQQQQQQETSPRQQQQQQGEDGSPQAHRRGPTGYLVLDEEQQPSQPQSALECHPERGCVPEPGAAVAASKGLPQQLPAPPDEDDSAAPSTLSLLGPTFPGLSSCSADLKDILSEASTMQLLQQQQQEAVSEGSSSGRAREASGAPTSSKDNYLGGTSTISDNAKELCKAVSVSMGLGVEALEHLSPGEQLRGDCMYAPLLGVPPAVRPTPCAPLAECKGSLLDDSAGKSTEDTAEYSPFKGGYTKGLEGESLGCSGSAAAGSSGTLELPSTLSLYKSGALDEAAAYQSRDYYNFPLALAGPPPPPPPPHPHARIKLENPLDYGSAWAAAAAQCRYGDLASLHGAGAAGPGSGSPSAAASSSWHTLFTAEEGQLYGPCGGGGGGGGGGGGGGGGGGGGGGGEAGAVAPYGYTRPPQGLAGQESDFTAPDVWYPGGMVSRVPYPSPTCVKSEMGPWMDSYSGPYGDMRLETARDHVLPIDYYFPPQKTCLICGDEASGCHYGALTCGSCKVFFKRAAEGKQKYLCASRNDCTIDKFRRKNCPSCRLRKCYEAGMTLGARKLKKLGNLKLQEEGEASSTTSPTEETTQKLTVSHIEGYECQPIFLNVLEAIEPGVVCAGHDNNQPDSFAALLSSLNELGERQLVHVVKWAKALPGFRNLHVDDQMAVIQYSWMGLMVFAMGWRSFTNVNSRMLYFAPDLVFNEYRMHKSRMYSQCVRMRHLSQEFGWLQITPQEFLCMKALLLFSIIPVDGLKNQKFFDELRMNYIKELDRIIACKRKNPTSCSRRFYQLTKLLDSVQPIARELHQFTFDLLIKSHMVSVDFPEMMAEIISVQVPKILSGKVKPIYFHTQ
Excerpt: Prostate cancer cells, non-prostate tumor cells, and normal cells can be used in this transient transfection assay, which measures transactivation of the androgen receptor (AR) and can be used to detect a reduction of AR activity caused by AR degradation. In the provided non-limiting example, CV-1 (green monkey kidney cells lacking an androgen receptor) and LNCaP cells (prostate cancer cells containing an endogenous mutant AR), were transfected with a plasmid carrying an androgen response element (ARE) and a reporter gene.
Both the CV-1 and LNCaP cells (obtained from ATCC, Manassas, Va.) were maintained in […] medium supplemented with penicillin (25 units/millilter), streptomycin (25 micrograms/milliliter), and 10% heat-inactivated fetal bovine serum (FBS). Cells were plated in 35-millimeter dishes at a concentration of 1-2×10^5cells/well and cultured at 37 degrees Celsius in an incubator under a 5% carbon dioxide atmosphere. […] The cells were lysed, and luciferase activity of the lysate was measured with the Dual-Luciferase Reporter Assay System (Promega, Madison, Wis.). Data were expressed as relative luciferase activity normalized to the internal luciferase positive control. […]

ER beta = biological target: T2, ER beta (Homo sapiens, UniProt Q92731); assay: Western blot of LNCaP cell lysates, ER beta; format: cell-based; settings: 1 or 2 micromolar, 24 hours, presence or absence of DHT
T2 construct: endogenous in cells; host or cells: LNCaP
Description: (§1) Human prostate cancer LNCaP cells and T47D cells were plated at a density of 7×10^5 cells per 60 millimeter tissue culture dish in […] (RPMI) medium containing 10% FBS. The medium was changed to RPMI or DME medium containing 10% charcoal-stripped serum 24 hours later to deplete cellular androgens or estrogens. After another 24 hours, treatment with the test compounds began. The test dose of JC15 was 1 or 2 micromolar and the test does of JC9 was 1, 5 and 10 micromolar. LNCap cells also received dihydrotestosterone (DHT) (3 nanomolar). Control cells received a corresponding amount of the vehicle, dimethylsulfoxide (DMSO) (<0.04%) for an equivalent exposure time. Cells were incubated with JC15 for 24 or 48 hours, and were lysed in 250 microliters of 1×SDS/PAGE loading buffer. Approximately 40 micrograms of total cellular protein was loaded in each lane of a pre-cast gel (NuPAGE, Invitrogen). Protein separation and transfer were performed following the manufacturer's instructions.
(§2) For the prostate cell lysates, androgen receptor (AR) protein was visualized by incubating the resultant membranes with an anti-AR antibody (BD-PharMingen), followed by chemiluminescence detection (ECL Plus, Amersham). […] The resultant protein signals were quantified using densitometry and NIH ImageJ software.

[2] = test system: prostate-specific antigen (PSA); assay: Western blot of LNCaP cell lysates, PSA; format: cell-based, human; settings: 1 or 2 micromolar, 24 hours, presence or absence of DHT
Description: as §1, §2

T2 sequence (Q92731 whole entry): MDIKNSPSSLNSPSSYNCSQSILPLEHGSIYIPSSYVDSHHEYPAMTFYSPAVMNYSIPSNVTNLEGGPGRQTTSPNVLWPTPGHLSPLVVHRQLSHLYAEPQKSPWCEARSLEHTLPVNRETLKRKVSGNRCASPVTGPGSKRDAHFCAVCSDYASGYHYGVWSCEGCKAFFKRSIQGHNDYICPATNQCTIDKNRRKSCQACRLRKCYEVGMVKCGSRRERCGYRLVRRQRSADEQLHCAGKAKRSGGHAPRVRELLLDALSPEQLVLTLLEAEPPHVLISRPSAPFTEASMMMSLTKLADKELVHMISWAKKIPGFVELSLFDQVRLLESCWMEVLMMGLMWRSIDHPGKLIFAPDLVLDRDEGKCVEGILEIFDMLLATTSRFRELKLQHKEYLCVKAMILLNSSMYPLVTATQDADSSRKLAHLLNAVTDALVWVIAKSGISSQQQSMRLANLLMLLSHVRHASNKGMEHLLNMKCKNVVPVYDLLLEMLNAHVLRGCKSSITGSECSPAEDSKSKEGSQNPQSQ

Structure (SMILES)	cell growth (cell number) in the presence of DHT (LNCaP cells; with 1 nM DHT, 5 days)	cell growth (cell number) (LNCaP cells; without DHT, 5-day incubation)	DHT-induced androgen receptor transcriptional activation (relative luciferase activity) [1]	cellular concentration of ER beta (ER beta)	PSA levels [2]
COc1ccc(C=CC(=O)C=C(O)C=Cc2ccc(OC)c(OC)c2)cc1OC [JC9, 5-hydroxy-1,7-bis(3,4-dimethoxyphenyl)-1,4,6-heptatrien-3-one]	good potency to decrease LNCaP cell growth	only a minimal number of viable cells	capable of inhibiting DHT-induced androgen receptor transcriptional activation in a dose dependent manner	–	–
CCOC(=O)CCC(C(=O)C=Cc1ccc(O)c(OC)c1)C(=O)C=Cc1ccc(O)c(OC)c1 (centres unmarked) [JC15, 7-(4-hydroxy-3-methoxyphenyl)-4-[3-(4-hydroxy-3-methoxyphenyl)acryloyl]-5-oxo-hept-6-enoic acid ethyl ester]	–	–	–	did not substantially affect	decreased

Reference: US20060084704A1, “Methods and compositions for enhancing degradation of nuclear receptor transcription factors and uses thereof” (priority 2004, published 2006)
